The text below walks through data of PubChem BioAssay (NCI).

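Protocol summary: plate cells (96-well), add compound at 5 concentrations, incubate 48 h, interpolate endpoints linearly. GI50 = concentration required for 50% inhibition of growth. TGI is the concentration that stops growth completely.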 Where a SMILES comes first, the peptide text is derived from it. The star is where a group is joined. Boc = CC(C)(C)OC(=O)*; OBn = c1ccc(CO*)cc1

Assay in all cases: growth of human tumour cells (NCI), 48 h
Test [1] relates to SK-MEL-28 melanoma.
In test [2] the test system is HCC-2998 colon.
Test [3] deals with UACC-62 melanoma.
Test [4] has as its system BT-549 breast.

For the molecule `OCC(CCc1ccccc1I)C1=CCC2(CC1)OCCO2` (stereo not drawn), the values for the TGI in test [1], in test [2] and in test [3] were 35 µM, 43.4 µM and 35.6 µM, respectively.

In the case of `CC1(C)C(CCO)CC1n1ccc(=O)[nH]c1=O` (stereo not drawn), the TGI in test [1], in test [2] and in test [3] was over 100 µM throughout.

Take `CC(=O)NC1=C(NCCCl)C(=O)c2ccccc2C1=O`: the TGI in test [1] was over 100 µM; in test [4], over 100 µM; in test [2] it was over 100 µM; in test [3] it was 42.9 µM.

Turning to `O=C1C=C2CCC[C@H]3OC(=O)C[C@@]23CC1`, the TGI in test [1], in test [2] and in test [3] was over 100 µM in each case.

With `Cc1ccnc2nc(N)ccc12`, the TGI in test [1], in test [4] and in test [3] was over 100 µM throughout.

For `COC(=O)c1c(CC(Cc2ccc3c(c2)CCCC3)C(=O)OC)ccc2c1CCCC2` (stereo not drawn), the TGI in test [1], in test [4], in test [2] and in test [3] was over 100 µM throughout.

For the molecule `O=C1CC(C(OCc2ccccc2)C(OCc2ccccc2)C(COCc2ccccc2)OCc2ccccc2)CC(=O)N1` (stereo not drawn), the TGI in test [1], in test [4] and in test [2] was over 100 µM in each case.

`COC(=O)C(=O)C(C(=O)C(=O)Nc1cccc([N+](=O)[O-])c1)c1nc2ccc(Cl)cc2[nH]c1=O` (stereo not drawn): the TGI in test [1], in test [4], in test [2] and in test [3] was over 100 µM in each case.

On to `Cc1cccc2nc3c(=O)[nH]c(=O)nc-3n(C)c12`, for which the TGI in test [1], in test [4], in test [2] and in test [3] was over 100 µM throughout.

`NC(=O)c1cc(N(CCO)CCO)c([N+](=O)[O-])cc1[N+](=O)[O-]`: the TGI in test [1], in test [2] and in test [3] was over 100 µM in each case.

Turning to `CC(C)CC(NC(=O)OC(C)(C)C)C(=O)NC(CC(=O)OCc1ccccc1)C(=O)OCc1ccccc1` (stereo not drawn) (Boc-Leu-Asp(OBn)-OBn; configuration not given here), the TGI is over 100 µM in test [4], 56.8 µM in test [2] and 45.9 µM in test [3].

Take `CN(C(=O)c1ccc2c(c1)sc1c(=O)n(C)c3ccccc3c12)c1ccccc1`: the TGI in test [1], in test [4], in test [2] and in test [3] was over 100 µM throughout.

As to `Cc1ccc(-c2nnc(CCCCCCCCc3nnc(-c4ccc(C)cc4O)n3N)n2N)c(O)c1`, the TGI in test [1], in test [2] and in test [3] was over 100 µM throughout.

For `Nc1cccc(S(=O)(=O)Nc2nnc(S(N)(=O)=O)s2)c1`, the TGI in test [1], in test [4], in test [2] and in test [3] was over 100 µM each time.

On to `CC(=O)OC1C2CCC3C(C)(O)C4CC(O)C(C)(C)C4(O)C(O)CC13CC2(C)O` (stereo not drawn), for which the TGI in test [4], in test [2] and in test [3] was over 100 µM each time.

On to `CCOC(=O)NNC(=O)NCc1ccccc1CNC(=O)NNC(=O)OCC`, for which the TGI in test [1], in test [4], in test [2] and in test [3] was over 100 µM throughout.

On to `COC(=O)[C@@](C)(COC(=O)C(C)(C)C)NC(=O)OC(C)(C)C`, for which the TGI in test [1], in test [4], in test [2] and in test [3] was over 100 µM in each case.

For the molecule `COc1ccccc1N=Nc1c(O)c(S(=O)(=O)O)cc2cc(S(=O)(=O)O)ccc12`, the TGI in test [1], in test [4] and in test [3] was over 100 µM each time.

On to `Cc1nc2n(c1/C=C1/C(=O)Nc3ccccc31)CCS2`, for which the TGI in test [1] was over 100 µM; in test [4], over 100 µM; in test [2], 61.9 µM; in test [3], over 100 µM.

With `O=C1CC(C(CC(=O)c2ccccc2)c2ccccc2)C(=O)c2ccccc2N1` (stereo not drawn), the TGI in test [4], in test [2] and in test [3] was over 100 µM throughout.

Take `CO[C@H]1O[C@@H]2CO[C@@H](c3ccccc3)O[C@H]2[C@@H]2C/C=C\CCC[C@@]12O`: the TGI in test [1] stood at 89.1 µM; in test [4], 43.8 µM; in test [2], 26.4 µM; in test [3] it was 30.7 µM.

As to `O=[N+]([O-])c1ccc2oc(=Nc3ccccc3)c(Nc3ccccc3)nc2c1`, the TGI in test [1], in test [2] and in test [3] was over 100 µM throughout.

On to `O=S(=O)(c1ccc(-c2nnc(-c3ccc(F)cc3)o2)cc1)c1ccc(-c2nnc(-c3ccc(F)cc3)o2)cc1`, for which the TGI in test [4], in test [2] and in test [3] was over 100 µM each time.

`CCN(CC)CCCNC(=O)c1cc2cc(NC(=O)c3cc4cc([N+](=O)[O-])ccc4[nH]3)ccc2[nH]1`: the TGI in test [1] was over 100 µM; in test [4], over 100 µM; in test [2] it was over 100 µM; in test [3], 96.3 µM.

As for `CC(=O)OC12c3ccccc3C(c3ccccc31)C1C(=O)N(c3ccccn3)C(=O)C12` (stereo not drawn), the TGI in test [1], in test [4], in test [2] and in test [3] was over 100 µM in each case.

`Cn1c([C@H](C#N)C(=O)c2cc(O)ccc2[N+](=O)[O-])nc2ccccc21`: the TGI in test [1], in test [4], in test [2] and in test [3] was over 100 µM throughout.

Turning to `[O-][n+]1c(CN2CCCCC2)nc2cccc3c2c1-c1ccccc1-3`, the TGI in test [1] is over 100 µM; in test [4], over 100 µM; in test [2], 31.8 µM; in test [3], 32.8 µM.

On to `CC(C)(O)C1CC[C@]2(C)[C@H]3CC[C@@H]4[C@@]5(C)CCCC(C)(C)[C@@H]5CC[C@@]4(C)[C@]3(C)CC[C@@H]12` (stereo partly drawn), for which the TGI in test [1], in test [4], in test [2] and in test [3] was over 100 µM throughout.

For the molecule `O=CC(O)C(O)C(O)C1CNC(=S)O1` (stereo not drawn), the TGI in test [1], in test [4] and in test [3] was over 100 µM in each case.

`O=C(Sc1c(-c2ccccc2)c(=O)n(-c2ccccc2)c(=S)n1-c1ccccc1)c1cccs1`: the TGI in test [1] and in test [4] was over 100 µM each time.

With `C=C(C)C1CC/C(C)=C/CC[C@]2(C)O[C@@H]2CCC2=CC1OC2=O` (stereo partly drawn), the GI50 in test [1] was over 100 µM; in test [2], 80 µM; in test [3], 78.8 µM. In addition, the TGI in test [1], in test [2] and in test [3] was over 100 µM each time.

On to `CC(C)=CCOc1cc(NC(=S)c2ccsc2C)ccc1Cl`, for which the TGI was over 100 µM in test [1], over 100 µM in test [4], 88 µM in test [2] and over 100 µM in test [3].

For the molecule `Cc1c(OCc2ccccc2)c(=O)ccn1CCc1c[nH]c2ccccc12`, the TGI in test [4] is over 100 µM; in test [3], 87.3 µM.

For `C=C[C@@]1(O)CCCC[C@@H]1CC(Sc1ccccc1)Sc1ccccc1`, the TGI in test [1] is 86.8 µM; in test [2] it was 26.6 µM; in test [3] it was over 100 µM.

Take `O=C(O)CC[P+](c1ccccc1)(c1ccccc1)c1ccccc1`: the TGI in test [1] was over 100 µM; in test [4], 81.8 µM; in test [2] it was over 100 µM; in test [3] it was over 100 µM.

Consider `Cc1ccc(NC2=NCCO2)c2c1CCC2`, for which the TGI in test [1] is over 100 µM; in test [2], 74.6 µM; in test [3], over 100 µM.

As to `CCCC1C(=O)Nc2cccc3ncn(c23)C1=O` (stereo not drawn), the TGI in test [1], in test [4] and in test [3] was over 100 µM each time.

`CC12CCCCC1=[N+]([O-])C(C)(C)N2O` (stereo not drawn): the TGI in test [1], in test [2] and in test [3] was over 100 µM throughout.

For `CS(=O)(=O)c1nc(-c2cc3c(c(S(C)(=O)=O)n2)CCC3)cc2c1CCCC2`, the TGI in test [1] is over 100 µM; in test [4] it was 83.8 µM; in test [2], over 100 µM; in test [3] it was 29.6 µM.

As for `O=Nn1c2ccccc2c2cc([N+](=O)[O-])ccc21`, the TGI is 39.3 µM in test [1], 38.3 µM in test [4], over 100 µM in test [2] and 32.9 µM in test [3].

`CN(C)c1ccc(/C=C/C(=O)N[C@@H]2C(=O)N3[C@@H]2SC(C)(C)[C@@H]3C(=O)O)cc1`: the TGI in test [1], in test [4], in test [2] and in test [3] was over 100 µM throughout.

Consider `O=c1[nH]c(=O)n(COCCO)c2ccsc12`, for which the TGI in test [1], in test [4] and in test [2] was over 100 µM in each case.

`C[N+](C)(C)C=Nc1cccc2c1CCCC2`: the TGI in test [1], in test [4] and in test [3] was over 100 µM throughout.

The molecule `COc1ccc(C(Cc2ccccc2)C2NC(=S)NC2=O)cc1` (stereo not drawn) gave a TGI in test [1] of over 25 µM.

Turning to `COC(=O)CCc1c(Cc2ccc[nH]2)[nH]c(C(=O)OCc2ccccc2)c1C`, the figures for the TGI in test [1] and in test [3] were 39.7 µM and 66.8 µM, respectively.

Turning to `NC(Cc1c[nH]c2cc([N+](=O)[O-])ccc12)C(=O)O` (stereo not drawn), the TGI in test [1], in test [4] and in test [3] was over 100 µM in each case.

As to `COC(=O)C1=C(O)C(C(=O)OC)[C@]2(O)[C@@H](C(=O)OC)[C@H]1C[C@@H](c1ccccc1)[C@@H]2C(=O)OC` (stereo partly drawn), the TGI was 64.9 µM in test [1], 33.5 µM in test [4], 27.3 µM in test [2] and 25.1 µM in test [3].

For the molecule `Oc1ccccc1C1C=C(c2ccccc2)NC(N2CCCCC2)=C1c1nc2ccccc2[nH]1` (stereo not drawn), the TGI in test [1] came out at 30.6 µM; in test [4], 28.5 µM; in test [2], 10.8 µM; in test [3] it was 29.8 µM.

In the case of `COC(=O)c1c(C)cccc1C1CN=NC12Cc1ccc(C)c(C)c1C2=O` (stereo not drawn), the TGI is over 100 µM in test [1], 90.6 µM in test [2] and 57.9 µM in test [3].

For `Cc1nnc2n(c1=O)CCN2C`, the TGI in test [1], in test [4], in test [2] and in test [3] was over 100 µM throughout.

Take `CCOC(=O)c1c(C)nc2c(c1-c1cn(-c3ccccc3)nc1-c1ccccc1)C(=O)c1ccccc1-2`: the TGI in test [1], in test [4] and in test [3] was over 100 µM throughout.

On to `Nc1ccc(Nc2cc(=O)[nH]c(=O)[nH]2)cc1`, for which the TGI in test [1], in test [2] and in test [3] was over 100 µM throughout.

As for `Cc1ccc(S(=O)(=O)[C@@H](Cl)[C@H]2N=C(Cl)NN=C2c2ccccc2)cc1`, the TGI in test [1] was 36.1 µM; in test [4] it was 59 µM; in test [2] it was over 100 µM; in test [3] it was 44 µM.

As to `COc1ccc(C2OCCN2C)cc1` (stereo not drawn), the TGI in test [4] and in test [3] was over 100 µM in each case.

For the molecule `CC(C)(C)CC(C)(C)NC(=S)NO`, the TGI in test [1], in test [2] and in test [3] was over 100 µM throughout.

With `O=S(=O)(O)c1cccc2cccc(N=Nc3c(O)ccc4ccccc34)c12`, the TGI in test [4], in test [2] and in test [3] was over 100 µM each time.

Consider `CCOc1ccc(N=NC2C(=O)N(C(=O)CC(=O)Nc3ccccc3)N=C2C)cc1` (stereo not drawn), for which the TGI in test [1], in test [4], in test [2] and in test [3] was over 100 µM each time.
